Measured values taken from ChEMBL document CHEMBL5126511, “The evolution paths of some reprehensive scaffolds of RORγt modulators, a perspective from medicinal chemistry” (Eur J Med Chem, 2022).

What was measured:
[1] = Metabolic stability in human liver microsomes assessed as clearance; type: ADME, Microsome; conditions: read-out: CLH
[2] = Metabolic stability in rat liver microsomes assessed as intrinsic clearance; type: ADME, Microsome; conditions: read-out: CLH

microsomal CLint [1]	microsomal CLint [2]	SMILES
30 µL/min/mg		Cc1ncc(C(=O)Nc2cn3ccnc3c(CN3CCN(C(=O)C4CCCC4)[C@@H](C)C3)c2C)cn1
	< 25 µL/min/mg	Cc1ncc(C(=O)Nc2cn3ccnc3c(CN3CCN(c4noc(C(C)(C)C)n4)[C@@H](C)C3)c2C)cn1
97 µL/min/mg	33 µL/min/mg	Cc1ncc(C(=O)Nc2cc(Cl)cc(CN3CCN(C(=O)C4CCCC4)[C@@H](C)C3)c2C)cn1
